Reference: patent US10821093B2, “Antibacterial microelement chelates and the use thereof in animal feeds” (priority 2012, dated 2020)
Where two headings read alike, the source gives them in different places.

Key:
Micrococcus luteus = test: MIC, liquid culture dilution; format: cell-based
Escherichia coli = test: MIC, liquid culture dilution (single chelates and cross-dilution combinations); format: cell-based
Salmonella enterica = test: as above; format: cell-based, Salmonella enterica subp. Enterica serovar enteritidis
LACTIC ACID PRODUCERS = test: MIC, liquid culture dilution; format: cell-based
Saccharomyces cerevisiae = test: MIC, liquid culture dilution; format: cell-based
Clostridium perfringens = format: cell-based
Arcanobacterium piogenes = test: MIC; format: cell-based
Clostridium = test: Minimal lethal concentration (CID); format: cell-based
Protocol: (§1) It is the concentration of the active ingredient that causes the complete death of the microbes. Under sterile conditions within a laminar box, a dilution series was prepared from the liquid culture mediums that were incubated for 24 hours, then from the dilution series 100 μl each was placed onto agar dishes and spread with a sterile glass rod. The incubation period is 24 hours under conditions favorable for the growth of the microbe, then the number of colonies on the agar dishes are counted.
(§2) In the case where no colonies are visible on the culture medium after the incubation, it indicates the microbe killing effect (CID) of the trace element chelate. The number of countable colonies grown on the agar dishes gives the actual MIC value of the given trace element chelate.

Lactococcus = test: Minimal lethal concentration (CID); format: cell-based
Protocol: as §1, §2

LSE = test: Minimal lethal concentration (CID); format: cell-based, Saccharomyces cerevisiae
Protocol: as §1, §2

[1] = tested on: Brachyspira hyodysenteriae; test: MIC (single chelates and combinations)
Staphylococcus aureus = test: MIC, liquid culture dilution; format: cell-based
Streptococcus agalactiae = test: MIC, liquid culture dilution; format: cell-based
Salmonella = test: Minimal lethal concentration (CID); format: cell-based
Protocol: as §1, §2

S. tiphy = format: cell-based

Molecule | Minimal inhibitory concentration (MIC) (Micrococcus luteus) [ppm] | Minimal inhibitory concentration (MIC) (Escherichia coli) [ppm] | Minimal inhibitory concentration (MIC) (Salmonella enterica) [ppm] | Minimal inhibitory concentration (MIC) (LACTIC ACID PRODUCERS) [ppm] | Minimal inhibitory concentration (MIC) (Saccharomyces cerevisiae) [ppm] | Minimal inhibitory concentration (MIC) (Clostridium perfringens) [ppm] | Minimal inhibitory concentration (MIC) (Arcanobacterium piogenes) [ppm] | CID concentration (Clostridium; Clostridium) [ppm] | CID value relative to MIC value (Clostridium; Clostridium strains) | CID concentration (Lactococcus) [ppm] | CID concentration (LSE) [ppm] | Minimal inhibitory concentration (MIC) [1] [ppm] | Minimal inhibitory concentration (MIC) (Staphylococcus aureus) [ppm] | Minimal inhibitory concentration (MIC) (Staphylococcus aureus; listed as Zn mono-glycinate) [ppm] | Minimal inhibitory concentration (MIC) (Streptococcus agalactiae) [ppm] | Minimal inhibitory concentration (MIC) (Streptococcus agalactiae; listed as Zn mono-glycinate) [ppm] | CID concentration (Salmonella; Salmonella) [ppm] | CID value relative to MIC value (Salmonella; Salmonella strains) [fold] | CID concentration (S. tiphy) [ppm]
copper mono-glycinate chelate | 200 | 400 | 400 | 800 | 800 | 50 | 92 | 200 | twice as much | 800 | 800 | 90 | – | – | – | – | – | – | –
NCC(=O)O.O=S(=O)([O-])[O-].[Zn+2] [Zinc mono-glycinate, zinc mono-glycinate chelate] | 60 | 100 | 100 | 800 | 800 | 210 | – | – | – | 800 | 800 | >4000 | 40 | 20 | 80 | 40 | 3000 | 30 | 3000
